Test results as given in patent publication US10941216B2, “Engineered polypeptide conjugates and methods for making thereof using transglutaminase” (PFIZER INC., priority 2010, dated 2021).
pIC50: −log10 of the molar value. Like-named read-outs stand apart in the source and are kept apart here. Numbered stars: 1 amine (or outer) side, 2 acyl side, 3 side chain; on linkers, the order of the positions; unused ones are H or OH. Square brackets hold non-standard residues; d marks the D form. Peptide text beside a SMILES is read from it. * marks the point of attachment. ξ: configuration not given here. Dolaproine = CO[C@@H]([C@@H]1CCCN1)[C@@H](C)C(=O)O; X1 = COC([C@@H](C)C(=O)[*:2])[C@@H]1CCCN1[*:1]; Dil = CC[C@H](C)[C@H](NC)[C@@H](CC(=O)O)OC; PABC = O=C(OCc1ccc(N[*:1])cc1)[*:2]; Doe = c1ccc(C[C@H](N*)c2nccs2)cc1; X2 = C[C@@H](N*)[C@@H](O)c1ccccc1; Cit = NC(=O)NCCC[C@H](N)C(=O)O; NMeV = CN[C@H](C(=O)O)C(C)C; PEG3 = NCCOCCOCCOCCC(=O)O; ξK = NCCCCC(N)C(=O)O; Ahx = NCCCCCC(=O)O; βAla = NCCC(=O)O

What was measured:
Test in all cases: In vitro cytotoxicity, CellTiter-Glo
Assay type in all cases: cell-based
SW620 cells = conditions: Homo sapiens; for pIC50: SW-620, SW620, target non-expressing, 96 hours, read-out: SW620 Antibody IC50
Procedure: (§1) In vitro cytotoxicity assays were carried out using various antibodies, payloads (i.e., agent moieties), and amine donor units. For mAb2 (a chimeric IgG1 antibody), target expressing (A431, OVCAR3, BxPC3 and HT-29) or non-expressing (SW620) cells were seeded on white walled clear bottom plates at 2000 cells/well for 24 hours before treatment. […] Cell viability was determined by CellTiter-Glo® Luminescent Cell Viability Assay 96 (Promega, Madison Wis.) 96 hours after treatment. […] IC50 was calculated by Prism software.

HT-29 cells = conditions: Homo sapiens; HT-29, target expressing, 96 hours; read-out: HT-29 Antibody IC50
Procedure: as §1

A431 cells = conditions: Homo sapiens; for pIC50: A-431, A431, target expressing, 96 hours, read-out: A431 Antibody IC50; for IC50: A-431, 96 h, read-out: A431 Antibody IC50 (nM)
Procedure: as §1

BxPC3 cells = conditions: Homo sapiens, BXPC-3, 96 h, read-out: BxPC3 Antibody IC50 (nM)
Procedure: as §1

| Structure (SMILES) | pIC50 (SW620 cells) | pIC50 (HT-29 cells) | pIC50 (A431 cells) | IC50 (BxPC3 cells) | IC50 (SW620 cells; SW-620, 96 h, read-out: SW620 Antibody IC50 (nM)) | IC50 (A431 cells) |
| --- | --- | --- | --- | --- | --- | --- |
| CO[C@H]1/C=C\C=C(/C)C(=O)NC2=CC(=O)C(NCCCCN)=C(C[C@@H](C)C[C@H](OC)[C@H](O)[C@@H](C)/C=C(\C)[C@@H]1OC(N)=O)C2=O [Sample 25, Putrescinyl-Geldanamycin] | < 6.00 | 6.50 | < 6.00 |  |  |  |
| CC[C@H](C)[C@@H]([C@@H](CC(=O)N1CCC[C@H]1C(OC)[C@@H](C)C(=O)N[C@@H](Cc1ccccc1)C(=O)O)OC)N(C)C(=O)[C@@H](NC(=O)[C@H](C(C)C)N(C)C(=O)CCCCCN)C(C)C (stereo partly drawn) [Sample 23, Aminocaproyl-MMAF] (H-[Ahx][NMeV]V[Dil][X1]F-OH) | 11.00 |  |  | 0.28 nM |  |  |
| CC[C@H](C)[C@@H]([C@@H](CC(=O)N1CCC[C@H]1[C@H](OC)[C@@H](C)C(=O)N[C@@H](Cc1ccccc1)C(=O)O)OC)N(C)C(=O)[C@@H](NC(=O)[C@H](C(C)C)N(C)C(=O)OCc1ccc(NC(=O)[C@H](CCCNC(N)=O)NC(=O)[C@@H](NC(=O)CCCCCN)C(C)C)cc1)C(C)C [Sample 24, VC-PABC-MMAF] (H-[Ahx]V[Cit][PABC][NMeV]V[Dil][Dolaproine]F-OH) |  |  |  | 427 nM | 483 nM |  |
| CC[C@H](C)[C@@H]([C@@H](CC(=O)N1CCC[C@H]1[C@H](OC)[C@@H](C)C(=O)N[C@@H](Cc1ccccc1)c1nccs1)OC)N(C)C(=O)[C@@H](NC(=O)[C@H](C(C)C)N(C)C(=O)OCc1ccc(NC(=O)[C@H](CCCNC(N)=O)NC(=O)[C@@H](NC(=O)[C@H](CCCCN)NC(C)=O)C(C)C)cc1)C(C)C [Sample 27, AcLys-VC-PABC-MMAD] (Ac-KV[Cit][PABC][NMeV]V[Dil][Dolaproine]-Doe) |  | 9.72 |  |  |  | 0.003 nM |
| CC[C@H](C)[C@@H]([C@@H](CC(=O)N1CCC[C@H]1[C@H](OC)[C@@H](C)C(=O)N[C@@H](Cc1ccccc1)c1nccs1)OC)N(C)C(=O)[C@@H](NC(=O)[C@H](C(C)C)N(C)C(=O)CCCCCN)C(C)C [Sample 28, Aminocaproyl-MMAD] (H-[Ahx][NMeV]V[Dil][Dolaproine]-Doe) |  | 7.01 | 6.84 |  |  |  |
| CC[C@H](C)[C@@H]([C@@H](CC(=O)N1CCC[C@H]1[C@H](OC)[C@@H](C)C(=O)N[C@@H](Cc1ccccc1)c1nccs1)OC)N(C)C(=O)[C@@H](NC(=O)[C@H](C(C)C)N(C)C(=O)CCNC(=O)C(CCCCN)NC(C)=O)C(C)C (stereo partly drawn) [Sample 30, AcLys-β-Ala-MMAD] (Ac-[ξK][βAla][NMeV]V[Dil][Dolaproine]-Doe) |  | 7.23 | 7.01 |  |  |  |
| CC[C@H](C)[C@@H]([C@@H](CC(=O)N1CCC[C@H]1[C@H](OC)[C@@H](C)C(=O)N[C@H](C)[C@@H](O)c1ccccc1)OC)N(C)C(=O)[C@@H](NC(=O)[C@H](C(C)C)N(C)C(=O)CCOCCOCCOCCN)C(C)C [Sample 33, Amino-PEG3-C2-MMAE] (H-[PEG3][NMeV]V[Dil][Dolaproine]-X2) |  | 6.68 |  |  |  | 258 nM |
